Experimental data taken from patent publication US20170275298A1, “INHIBITORS OF THE RENAL OUTER MEDULLARY POTASSIUM CHANNEL” (Merck Sharp & Dohme Corp., priority 2014, published 2017).

The compounds below were run against T1, hROMK (hKir1.1) (Homo sapiens, UniProt P48048) (assay: Thallium Flux Assay (ROMK channel functional thallium flux assay)). Settings: HEK293 cells stably expressing hROMK (hKir1.1); FluxOR thallium flux, FLIPR-Tetra, 30 min compound incubation; read-out: ROMK TI IC50.
T1 construct: expressed in transfected cells
T1 sequence (P48048 1-391): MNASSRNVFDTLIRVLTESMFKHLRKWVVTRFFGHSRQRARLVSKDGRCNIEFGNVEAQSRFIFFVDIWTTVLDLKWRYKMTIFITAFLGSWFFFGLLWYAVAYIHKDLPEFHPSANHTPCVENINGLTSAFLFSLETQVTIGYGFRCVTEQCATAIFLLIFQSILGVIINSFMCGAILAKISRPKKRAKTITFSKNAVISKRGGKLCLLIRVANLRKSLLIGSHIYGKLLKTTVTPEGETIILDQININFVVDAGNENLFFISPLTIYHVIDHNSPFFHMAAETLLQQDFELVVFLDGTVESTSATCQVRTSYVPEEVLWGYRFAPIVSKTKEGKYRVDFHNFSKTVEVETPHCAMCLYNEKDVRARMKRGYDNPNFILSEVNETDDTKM
Type: cell-based
Experimental: The following Thallium Flux Assay was performed on each of the final product compounds in the Examples.
HEK293 cells stably expressing hROMK (hKir1.1) were grown at 37° C. in a 10% CO2 humidified incubator in complete growth media: Dulbecco's Modified Eagle Medium supplemented with non-essential amino acids, Penicillin/Streptomycin/Glutamine, G418 and FBS. At >80% confluency, the media was aspirated from the flask and rinsed with 10 mL calcium/magnesium-free PBS. […] To dislodge the cell, the side of the flask was gently banged with one's hand. The cells completely titrated and then the cells were transferred to 25 mL complete media, centrifuged at 1,500 rpm for 6 min followed by resuspension in complete growth media and determine cell concentration. […] Under ideal growth conditions and appropriate tissue culture practices, this cell line is stable for 40-45 passages.
• FluxOR™ Reagent (Component A) • FluxOR™ Assay Buffer (Component B)—10× Concentrate • PowerLoad™ Concentrate (Component C)—100× Concentrate • Probenecid (Component D)—Lyophilized sample is kept at −20° C. Water soluble, 100× after solubilization in 1 mL water. […] Store at 4° C. • Thallium sulfate (Tl2SO4) Concentrate (Component G)—50 mM in water. Store at 4° C. • DMSO (dimethyl sulfoxide, Component H)—1 mL (100%)
Can be stored at room temperature • Stimulant Buffer (prepared at 5× final concentration in 1×FluxOR™ Chloride-Free Buffer): 7.5 mM thallium sulfate and 0.75 mM potassium sulfate (to give a final assay concentration of 3 mM Thallium/0.3 mM potassium). Store at 4° C. when not in use. If kept sterile, this solution is good for months.
The ROMK channel functional thallium flux assay was performed in 384 wells, using the FLIPR-Tetra instrument. HEK-hKir1.1 cells were seeded in Poly-D-Lysine microplates and kept in a 37° C.-10% CO2 incubator overnight. On the day of the experiment, the growth media was replaced with the FluxOR™ reagent loading buffer and incubated, protected from light, at ambient temperature (23-25° C.) for 90 min. The loading buffer was replaced with assay buffer±test compound followed by 30 min incubation at ambient temperature, where the thallium/potassium stimulant was added to the microplate.
1. Seed HEK-hKir1.1 cells (50 μl at 20,000 cells/well) in 384-well PDL coated Microplates 2. Allow cells to adhere overnight in humidified 37° C./10% CO2 incubator 3. Completely remove cell growth media from microplate and replace with 25 μl loading buffer 4. Incubate Microplate at room temperature, protected form light, for 90 min 5. Remove loading buffer and replace with 25 μl 1× Assay Buffer±test compound. 6. Incubate microplate at room temperature, protected from light, for 30 min 7. […] Excitation=400 nm, Emission=460 & 580 nm. Collect data for ˜10 min.
The fluorescence intensity of wells containing 3 μM of a standard control ROMK inhibitor of the present invention was used to define the ROMK-sensitive component of thallium flux. Fluorescence in the presence of test compounds was normalized to control values to provide % fluorescence change.

Compound	IC50 [nM]
COc1nccc(N2CCOC3(CCN(C[C@H](O)c4ccc5c(c4C)COC5=O)CC3)C2=O)n1 [Example 24, (R)-9-(2-hydroxy-2-(4-methyl-1-oxo-1,3-dihydroisobenzofuran-5-yl)ethyl)-4-(2-methoxypyrimidin-4-yl)-1-oxa-4,9-diazaspiro[5.5]undecan-5-one]	30.2
Cc1c([C@@H](O)CN2CCC3(CC2)CCN(c2cnccn2)C3=O)ccc2c1COC2=O [Example 25, (R)-8-(2-hydroxy-2-(4-methyl-1-oxo-1,3-dihydroisobenzofuran-5-yl)ethyl)-2-(pyrazin-2-yl)-2,8-diazaspiro[4.5]decan-1-one]	437
Cc1c([C@@H](O)CN2CCC3(CC2)OCCN(c2ccncc2)C3=O)ccc2c1COC2=O [Example 26, (R)-9-(2-hydroxy-2-(4-methyl-1-oxo-1,3-dihydroisobenzofuran-5-yl)ethyl)-4-(pyridin-4-yl)-1-oxa-4,9-diazaspiro[5.5]undecan-5-one]	238
COc1nsc(N2CCOC3(CCN(C[C@H](O)c4ccc5c(c4C)COC5=O)CC3)C2=O)n1 [Example 27, (R)-9-(2-hydroxy-2-(4-methyl-1-oxo-1,3-dihydroisobenzofuran-5-yl)ethyl)-4-(3-methoxy-1,2,4-thiadiazol-5-yl)-1-oxa-4,9-diazaspiro[5.5]undecan-5-one]	25
Cc1nsc(N2CCOC3(CCN(C[C@H](O)c4ccc5c(c4C)COC5=O)CC3)C2=O)n1 [Example 28, (R)-9-(2-hydroxy-2-(4-methyl-1-oxo-1,3-dihydroisobenzofuran-5-yl)ethyl)-4-(3-methyl-1,2,4-thiadiazol-5-yl)-1-oxa-4,9-diazaspiro[5.5]undecan-5-one]	123
Cc1c([C@@H](O)CN2CCC3(CCCN(c4ccc(=O)n(C)n4)C3=O)CC2)ccc2c1COC2=O [Example 29, (R)-9-(2-hydroxy-2-(4-methyl-1-oxo-1,3-dihydroisobenzofuran-5-yl)ethyl)-2-(1-methyl-6-oxo-1,6-dihydropyridazin-3-yl)-2,9-diazaspiro[5.5]undecan-1-one]	145
Cc1c([C@@H](O)CN2CCC3(CC2)CC(=O)N(c2ccc(=O)n(C)n2)C3)ccc2c1COC2=O [Example 30, (R)-8-(2-hydroxy-2-(4-methyl-1-oxo-1,3-dihydroisobenzofuran-5-yl)ethyl)-2-(1-methyl-6-oxo-1,6-dihydropyridazin-3-yl)-2,8-diazaspiro[4.5]decan-3-one]	95.1
Cc1c([C@@H](O)CN2CCC3(CC2)CCN(c2ccc(C(F)F)nc2)C3=O)ccc2c1COC2=O [Example 33, (R)-2-(6-(difluoromethyl)pyridin-3-yl)-8-(2-hydroxy-2-(4-methyl-1-oxo-1,3-dihydroisobenzofuran-5-yl)ethyl)-2,8-diazaspiro[4.5]decan-1-one]	63.1
Cc1c([C@@H](O)CN2CCC3(CC2)CCN(c2cc(-c4ccccc4)no2)C3=O)ccc2c1COC2=O [Example 34, (R)-8-(2-hydroxy-2-(4-methyl-1-oxo-1,3-dihydroisobenzofuran-5-yl)ethyl)-2-(3-phenylisoxazol-5-yl)-2,8-diazaspiro[4.5]decan-1-one]	505
Cc1c([C@@H](O)CN2CCC3(CC2)CCN(c2cncc(F)c2)C3=O)ccc2c1COC2=O [Example 38, (R)-2-(5-fluoropyridin-3-yl)-8-(2-hydroxy-2-(4-methyl-1-oxo-1,3-dihydroisobenzofuran-5-yl)ethyl)-2,8-diazaspiro[4.5]decan-1-one]	82.5
[2H]C([2H])([2H])Oc1nccc(N2CCC3(CCN(C[C@H](O)c4ccc5c(c4C)COC5=O)CC3)C2=O)n1 [Example 39, (R)-8-(2-hydroxy-2-(4-methyl-1-oxo-1,3-dihydroisobenzofuran-5-yl)ethyl)-2-(2-methoxypyrimidin-4-yl)-2,8-diazaspiro[4.5]decan-1-one (methoxy-d3)]	38.8
COc1cc(N2CCC3(CCN(C[C@H](O)c4ccc5c(c4C)COC5=O)CC3)C2=O)nc(OC)n1 [Example 42, (R)-2-(2,6-dimethoxypyrimidin-4-yl)-8-(2-hydroxy-2-(4-methyl-1-oxo-1,3-dihydroisobenzofuran-5-yl)ethyl)-2,8-diazaspiro[4.5]decan-1-one]	842
Cc1c([C@@H](O)CN2CCC3(CC2)CCN(c2ccnc(N(C)C)n2)C3=O)ccc2c1COC2=O [Example 43, (R)-2-(2-(dimethylamino)pyrimidin-4-yl)-8-(2-hydroxy-2-(4-methyl-1-oxo-1,3-dihydroisobenzofuran-5-yl)ethyl)-2,8-diazaspiro[4.5]decan-1-one]	521

More lines, now with the values ahead:

IC50 [nM]	Compound
407	COc1cc(N2CCOC3(CCN(C[C@H](O)c4ccc5c(c4C)COC5=O)CC3)C2=O)ccn1 [Example 23, (R)-9-(2-hydroxy-2-(4-methyl-1-oxo-1,3-dihydroisobenzofuran-5-yl)ethyl)-4-(2-methoxypyridin-4-yl)-1-oxa-4,9-diazaspiro[5.5]undecan-5-one]
153	COc1nccc(N2CC3(CCN(C[C@H](O)c4ccc5c(c4C)COC5=O)CC3)CC2=O)n1 [Example 31, (R)-8-(2-hydroxy-2-(4-methyl-1-oxo-1,3-dihydroisobenzofuran-5-yl)ethyl)-2-(2-methoxypyrimidin-4-yl)-2,8-diazaspiro[4.5]decan-3-one]
465	Cc1c([C@@H](O)CN2CCC3(CC2)CCN(c2ccc(OC(F)(F)F)cc2)C3=O)ccc2c1COC2=O [Example 32, (R)-8-(2-hydroxy-2-(4-methyl-1-oxo-1,3-dihydroisobenzofuran-5-yl)ethyl)-2-(4-(trifluoromethoxy)phenyl)-2,8-diazaspiro[4.5]decan-1-one]
379	Cc1c([C@@H](O)CN2CCC3(CC2)CCN(c2cccnc2)C3=O)ccc2c1COC2=O [Example 35, (R)-8-(2-hydroxy-2-(4-methyl-1-oxo-1,3-dihydroisobenzofuran-5-yl)ethyl)-2-(pyridin-3-yl)-2,8-diazaspiro[4.5]decan-1-one]
393	COc1ccc(N2CCC3(CCN(C[C@H](O)c4ccc5c(c4C)COC5=O)CC3)C2=O)nn1 [Example 36, (R)-8-(2-hydroxy-2-(4-methyl-1-oxo-1,3-dihydroisobenzofuran-5-yl)ethyl)-2-(6-methoxypyridazin-3-yl)-2,8-diazaspiro[4.5]decan-1-one]
676	Cc1c([C@@H](O)CN2CCC3(CC2)CCN(c2cncnc2)C3=O)ccc2c1COC2=O [Example 37, (R)-8-(2-hydroxy-2-(4-methyl-1-oxo-1,3-dihydroisobenzofuran-5-yl)ethyl)-2-(pyrimidin-5-yl)-2,8-diazaspiro[4.5]decan-1-one]
142	COc1ncc(N2CCC3(CCN(C[C@H](O)c4ccc5c(c4C)COC5=O)CC3)C2=O)cn1 [Example 40, (R)-8-(2-hydroxy-2-(4-methyl-1-oxo-1,3-dihydroisobenzofuran-5-yl)ethyl)-2-(2-methoxypyrimidin-5-yl)-2,8-diazaspiro[4.5]decan-1-one]
193	Cc1nccc(N2CCC3(CCN(C[C@H](O)c4ccc5c(c4C)COC5=O)CC3)C2=O)n1 [Example 41, (R)-8-(2-hydroxy-2-(4-methyl-1-oxo-1,3-dihydroisobenzofuran-5-yl)ethyl)-2-(2-methylpyrimidin-4-yl)-2,8-diazaspiro[4.5]decan-1-one]
66.6	CCOc1nccc(N2CCC3(CCN(C[C@H](O)c4ccc5c(c4C)COC5=O)CC3)C2=O)n1 [Example 44, (R)-2-(2-ethoxypyrimidin-4-yl)-8-(2-hydroxy-2-(4-methyl-1-oxo-1,3-dihydroisobenzofuran-5-yl)ethyl)-2,8-diazaspiro[4.5]decan-1-one]
